The data set is described as follows: xn = mol fraction of the nth substance listed. Conditions: 303.2 K; 101 kPa; Liquid; Taylor dispersion method; x1 = 0.
Consider `CCCCCCn1cc[n+](C)c1.F[P-](F)(F)(F)(F)F` [1-hexyl-3-methylimidazolium hexafluorophosphate] + O, for which the binary diffusion coefficient came out at 1.11e-09 m2/s. With `CCCCn1cc[n+](C)c1.F[B-](F)(F)F` [1-butyl-3-methylimidazolium tetrafluoroborate] + O, the binary diffusion coefficient is 1.3e-09 m2/s. On to `CCCCCCCC[n+]1ccn(C)c1.F[P-](F)(F)(F)(F)F` [1-octyl-3-methylimidazolium hexafluorophosphate] + O, for which the binary diffusion coefficient was determined as 1.06e-09 m2/s. In the case of `CCCCCCn1cc[n+](C)c1.F[B-](F)(F)F` [1-hexyl-3-methylimidazolium tetrafluoroborate] + O, the binary diffusion coefficient worked out at 1.24e-09 m2/s.

Take `CCn1cc[n+](C)c1.F[B-](F)(F)F` [1-ethyl-3-methylimidazolium tetrafluoroborate] + O: the binary diffusion coefficient was 1.52e-09 m2/s. Turning to `CCCCCCCC[n+]1ccn(C)c1.F[B-](F)(F)F` [1-methyl-3-octylimidazolium tetrafluoroborate] + O, the binary diffusion coefficient came out at 1.14e-09 m2/s. `CCCCn1cc[n+](C)c1.F[P-](F)(F)(F)(F)F` [1-butyl-3-methylimidazolium hexafluorophosphate] + O: the binary diffusion coefficient was determined as 1.25e-09 m2/s.

Turning to `CCn1cc[n+](C)c1.F[P-](F)(F)(F)(F)F` [1-ethyl-3-methylimidazolium hexafluorophosphate] + O, the binary diffusion coefficient came to 1.41e-09 m2/s.

The values are drawn from the NIST ThermoML archive (doi:10.1016/j.fluid.2006.12.001).
